# Source: patent US10765642B2, “Composition for preventing or treating muscle weakness-related diseases comprising sobrerol” (KOREA RESEARCH INSTITUTE OF BIOSCIENCE AND BIOTECHNOLOGY, priority 2015, dated 2020)
# What was measured:
# [1] = tested on: myogenin promoter; assay: secreted MyoG luciferase assay system (myogenin promoter-secreted luciferase C2C12 myoblast line); type: cell-based; conditions: for luciferase activity increase as compared to the negative control: negative control (MeOH) set at 1
# Text: To evaluate the myoblast differentiation-promoting capability of sobrerol, a secreted MyoG luciferase assay system was used (FIG. 1). Specifically, the promoter portion of myogenin, which is a protein whose expression is increased upon myogenesis, was cloned into a secreted luciferase vector (pMetLuc2-Reporter Vector, Clontech), and then the vector was transfected into myoblasts C2C12 to prepare a myogenin promoter-secreted luciferase C2C12 myoblast line capable of stably expressing the luciferase enzyme The differentiation degree of the myoblasts into myotube cells can be quantitatively verified through the system in which the luciferase enzymes are secreted into the medium as the myogenin promoter is activated. To induce differentiation into muscle cells, DMEM (Dulbecco's Modified Eagle Medium, Invitrogen) medium supplemented with 2% horse serum was added to the C2C12 myoblasts. Herein, the expressed MEF2 and MyoD bind to the myogenin promoter, and then the luciferase enzymes are expressed and secreted out of the cell. Since the secreted luciferase enzymes are present in the medium, it can be measured to verify the degree of myogenesis. […] Specific experimental methods are as follows. On the first day, the C2C12 cells prepared in the Example 1-1 were inoculated into a 96-well plate containing DMEM medium supplemented with 10% bovine serum (FBS) at a concentration of 5×10^3 cells/well. In the morning of the second day, the medium of the well plate was replaced with DMEM medium (Growth medium, GM) supplemented with 10% bovine serum, which is the same component. In the afternoon, the medium (GM) was collected. Then, each well was treated with 100 μL of DMEM medium (differentiation medium 1, DM1) supplemented with 2% horse serum diluted with the sobrerol at each concentration. On the third day, the DM1 medium was collected, and the wells were treated with the same medium as in the second day (DM2). On the fourth day, the DM2 was collected. The media containing the luciferase secreted in the differentiation process of C2C12 cells were collected starting from the growth medium (GM) to the first day differentiation medium (DM1) and the second day differentiation medium (DM2) as described above, and 5 μL of coelenterazine as a substrate was added to 50 μL of the collected medium containing the luciferase enzyme, and the generated light was measured using a luminometer. The myogenesis-promoting capability of sobrerol at each concentration was measured through digitization by subtracting the measured values of DM0 from the measured values of DM1 and DM2. […] Ready-To-Glow™ Secreted Luciferase Reporter Systems (Clontech) was used as the luciferase assay kit, and the experiment was repeated three times.
# [2] = tested on: myosin heavy chain protein; assay: immunofluorescence of myosin heavy chain protein in C2C12 myoblasts; type: cell-based; conditions: 0.1 μM sobrerol, 72 hours, differentiation medium
# Protocol: Among the myogenic regulatory factors whose mRNA increased in the Example 2-1, experiments were conducted to verify the effect of sobrerol on the expression of myosin heavy chain. Specifically, the expression level of the myosin heavy chain protein was measured by immunofluorescence after treating the C2C12 myoblasts placed in the differentiation medium with 0.1 μM of sobrerol for 72 hours.
# [3] = tested on: male C57BL/6 mice; assay: muscle weight measurement after exercise restriction; type: in vivo; conditions: oral
# Protocol: A total of 45 male C57BL/6 mice at 5 weeks of age (Daehan BioLink) were used in this animal experiment. After 2 weeks of adaptation to the surrounding environment, sobrerol was orally administered twice daily since 7 weeks of age. The control group was administered with 200 μL of water/20 g of mouse, and sobrerol was orally administered at a ratio of 1:2:4 [8.8 mg/200 μL/20 g (mouse), 17.6 mg/200 μL/20 g (mouse) and 35.3 mg/200 μL/20 g (mouse)] to verify dose dependency. At 8 weeks of age, both hind limbs of the mice were immobilized for 10 days using a surgical stapler (Autosuture Royal 35W stapler). (A novel hindlimb immobilization procedure for studying skeletal muscle atrophy and recovery in mouse. J Appl Physiol 106: 2049-2059, 2009). After removing the surgical stapler, they were allowed to move again for 3 days (remobilization), and then exercise capability improvement-verification tests (treadmill, and grip tests) were conducted. As a result, the diameters of the muscle fibers of the mice orally administered with sobrerol were larger than those of the control group orally administered with distilled water (FIG. 11).
# [4] = tested on: female C57BL/6 mice at the age of 21 months; assay: grip strength test in aged mice; type: in vivo; conditions: oral for 5 weeks
# Protocol: The grip strength was measured using a grip strength measuring device for mouse (BIOSEB) (FIG. 6). Specifically, the front limbs of the mice of the Example 3-1 were placed on a wire net attached to an instrument panel capable of monitoring the strength, and the strength to hold the wire net was measured while the tail was gripped and pulled downward. The test was repeated three times in succession.
# (§1) Experiments were conducted to confirm whether sobrerol increases muscle strength in aged mice. Female C57BL/6 mice at the age of 21 months were adapted to the environment for 2 weeks and then orally administered with drugs for 5 weeks. Specifically, the negative control group was administered with water, the positive control group was administered with clenbuterol at a concentration of 2 mg/kg (mouse), and the sobrerol administration experimental group was orally administered with sobrerol at a concentration of 17.6 or 35.3 mg/kg (mouse). Then, locomotion tests (grip strength, treadmill) were conducted again to verify the effect.
# The grip strength test is the same as the Example 3-2.
# [5] = tested on: female C57BL/6 mice at the age of 21 months; assay: treadmill test in aged mice; type: in vivo; conditions: 5 weeks
# Protocol: One day prior to the treadmill test, the equipment was warmed up at a rate of 6 m/min for 10 minutes. At the starting point, electric stimulation was configured to flow so that the mice were forced to exercise. The next day, the test was started at a speed of 8 m/min and the speed was increased by 2 m/min every 20 minutes. One hour after the start of the treadmill test, the speed of 12 m/min was maintained, and the angle was increased by 5° and the electric stimulation was turned off. After 20 minutes, the angle of 5° was maintained but only the speed was increased by 2 m/min. Under the above condition, the running times of the mice were measured and recorded.
# as §1
# Tread mill test is the same as Example 3-3.
# [6] = tested on: tibialis anterior (TA) muscle fibers; assay: muscle fiber diameter (laminin immunofluorescence of tibialis anterior section) in aged mice; type: in vivo; conditions: aged mice fed with sobrerol
# Protocol: In addition, after the exercise restriction in the Example 3-3, sections of the tibialis anterior (TA) were stained by immunofluorescence analysis using the antibodies against laminin, which is a protein existing at the periphery of muscle fibers, and the diameter of each muscle fiber was measured.
# as §1
# In addition, changes in the muscle size and the muscle weight of the aged mice by sobrerol were verified by the method of the Example 3-3.
# In addition, as in the Example 3-3, the diameter of the muscle fiber of the tibialis anterior (TA) section was measured by immunofluorescence analysis using laminin antibodies.
smiles,measurement,setting,value
CC1=CCC(C(C)(C)O)CC1O (centres unmarked) [sobrerol],luciferase activity increase as compared to the negative control,"[1]; 0.01 nM sobrerol, C2C12",≥ 1.2 fold
same,luciferase activity versus control group,"[1]; 0.01 nM to 10 μM sobrerol, C2C12",higher luciferase activity than the control group
same,luciferase activity increase as compared to the negative control,"[1]; 0.1 nM sobrerol, C2C12",about 1.5 fold
same,concentration with the greatest differentiation-promoting capability,[1]; C2C12 myogenin promoter luciferase,0.1 nM
same,myosin heavy chain protein fluorescence intensity versus DMSO group,[2],stronger
same,weight of extensor digitorum longus (EDL),[3],significantly increased
same,weight of gastrocnemius (GA),[3],significantly increased
same,weight of soleus,[3],significantly increased
same,weight of tibialis anterior (TA),[3],significantly increased
same,"first measured grip strength values, difference between groups",[4],no differences
same,fatigue (grip strength weakening) on repeated grip strength measurement,"[4]; sobrerol 17.6 or 35.3 mg/kg, clenbuterol 2 mg/kg",did not show the increase in fatigue
same,treadmill running time versus negative control group,[5]; 17.6 mg/kg oral,significantly longer
same,treadmill running time versus negative control group,[5]; 35.3 mg/kg oral,longer running time than the negative control group
same,diameters of the muscle fibers (tibialis anterior section),[6],further increased
